# Source: patent US20260225997A1, “IONIZABLE AMINE LIPIDS” (Intellia Therapeutics, Inc., priority 2018, published 2026)
# What was measured:
# [1] = pKa measurement of unformulated amine lipid (fluorescence, method of Jayaraman et al.); assay type: physicochemical; conditions: 100 μM in 0.1 M phosphate buffer pH 4.5-9.0
# Method: The pKa of each amine lipid was determined according to the method in Jayaraman, et al. (Angewandte Chemie, 2012) with the following adaptations. […] Lipid was diluted to 100 μM in 0.1 M phosphate buffer (Boston Bioproducts) where the pH ranged from 4.5-9.0. Fluorescence intensity was measured using excitation and emission wavelengths of 321 nm and 448 nm.
# [2] = LNP average particle size and polydispersity by dynamic light scattering (Malvern Zetasizer); assay type: physicochemical; conditions: Table 3, Example 52: LNP, Cas9 mRNA + sgRNA (G650) 1:1 w/w, N:P 6.0
# Procedure, shortened: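 LNPs diluted in PBS to a count rate of about 200–400 kcps and measured by dynamic light scattering. Size given as intensity-weighted Z-average diameter, with number-average diameter and polydispersity index also reported.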
# [3] = RNA encapsulation efficiency of LNP (Ribogreen fluorescence assay); assay type: physicochemical; conditions: Table 3, Example 52: LNP, Cas9 mRNA + sgRNA (G650) 1:1 w/w, N:P 6.0; Compound 19 50/9/38/3, others 50/10/38.5/1.5
# Procedure, shortened: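 LNP samples diluted in 1× TE buffer with 0.2% Triton X-100 (total RNA) or without it (free RNA), stained with RiboGreen for ~10 min at room temperature in the dark, read at ex 488/em 525 nm against RNA standard curves. Encapsulation efficiency = (Total RNA − Free RNA)/Total RNA.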
# B2M = B2M editing in mouse liver by NGS after i.v. LNP delivery of Cas9 mRNA and sgRNA; assay type: in vivo; conditions: Example 52: LNP single dose 0.1 mg/kg i.v., CD-1 female mice, sgRNA G650:Cas9 mRNA 1:1, NGS
# Method: Preparations of various LNP compositions were prepared with amine lipids. In assays for percent liver editing in mice, Cas9 mRNA and chemically modified sgRNA were formulated in LNPs, at either a 1:1 w/w ratio or a 1:2 w/w ratio. LNPs are formulated with a composition of a given ionizable lipid (e.g. an amine lipid), DSPC, cholesterol, and PEG-2k-DMG, with a 6.0 N:P ratio.
# LNPs were administered to mice by a single dose at 0.1 mg/kg, unless otherwise noted and genomic DNA was isolated for NGS analysis as described below.
# CD-1 female mice, ranging from 6-10 weeks of age were used in each study. Animals were weighed and grouped according to body weight for preparing dosing solutions based on group average weight. LNPs were dosed via the lateral tail vein in a volume of 0.2 mL per animal (approximately 10 mL per kilogram body weight). The animals were periodically observed post dose for adverse effects for at least 24 hours post dose. Animals were euthanized at 6 or 7 days by exsanguination via cardiac puncture under isoflurane anesthesia. Blood was collected into serum separator tubes or into tubes containing buffered sodium citrate for plasma as described herein. For studies involving in vivo editing, liver tissue was collected from each animal for DNA extraction and analysis.
# Cohorts of mice were measured for liver editing by Next-Generation Sequencing (NGS).
# In brief, to quantitatively determine the efficiency of editing at the target location in the genome, genomic DNA was isolated and deep sequencing was utilized to identify the presence of insertions and deletions introduced by gene editing.
# PCR primers were designed around the target site (e.g., B2M), and the genomic area of interest was amplified. Additional PCR was performed according to the manufacturer's protocols (Illumina) to add the necessary chemistry for sequencing. The amplicons were sequenced on an Illumina MiSeq instrument. The reads were aligned to the […] after eliminating those having low quality scores. The resulting files containing the reads were mapped to the reference genome (BAM files), where reads that overlapped the target region of interest were selected and the number of wild type reads versus the number of reads which contain an insertion, substitution, or deletion was calculated.
# The editing percentage (e.g., the “editing efficiency” or “percent editing”) is defined as the total number of sequence reads with insertions or deletions over the total number of sequence reads, including wild type.
# CD-1 female mice were dosed i.v. at 0.1 mpk or 0.3 mpk. […] For animals dosed with G282 targeting TTR, blood and the liver were collected and serum TTR and editing were measured. For animals dosed with G650 targeting B2M, liver was collected and editing was measured.
smiles,measurement,setting,value
"CCCCCCCCCCOC(CCCCCCCN(CCO)CCCCCCCC(=O)OCCCCCCCCC)OCCCCCCCCCC [Compound 3, nonyl 8-[8,8-didecoxyoctyl(2-hydroxyethyl)amino]octanoate]",pKa,[1],6.19
same,Num Ave Size (nm),[2],57.41 nm
same,PDI,[2],0.056
same,Z-Ave Size (nm),[2],75.79 nm
same,Encapsulation (%),[3],98%
same,Editing (%) of B2M in mouse liver,B2M,8.8%
